# Experimental data from patent EP0179667B1, “N6-substituted adenosines” (priority 1984, dated 1986).
# Tests used:
# [1] = molecular target: T1, adenosine A1 receptor (Rattus norvegicus, UniProt P25099); assay: Adenosine Receptor Binding - A1 Receptor Affinity (RBA1); details: [3H]-CHA, rat whole brain membranes; read-out: RBA-1
# T1 construct: Whole brain minus cerebellum and brainstem from male Long Evans rats (150-200 g) was homogenized; from tissue; host or cells: rat whole brain minus cerebellum and brainstem, membrane homogenate
# T1 sequence (P25099 1-326): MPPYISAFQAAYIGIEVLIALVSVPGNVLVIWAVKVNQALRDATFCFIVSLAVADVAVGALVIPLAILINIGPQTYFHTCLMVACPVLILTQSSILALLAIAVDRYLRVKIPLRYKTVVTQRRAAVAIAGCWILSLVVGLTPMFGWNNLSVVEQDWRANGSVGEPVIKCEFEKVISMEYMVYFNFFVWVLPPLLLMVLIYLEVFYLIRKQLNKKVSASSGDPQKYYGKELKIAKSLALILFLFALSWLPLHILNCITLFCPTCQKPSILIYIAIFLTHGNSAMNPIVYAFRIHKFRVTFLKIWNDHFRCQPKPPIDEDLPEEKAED
# Description: Adenosine Receptor Binding - A1 Receptor Affinity (RBA1)
# Whole brain minus cerebellum and brainstem from male Long Evans rats (150-200 g) was homogenized in 30 volumes of ice-cold 0.05 M Tris-HCI buffer pH 7.7 using a Brinkman Polytron PT-10 (setting number 6 for 20 seconds) and centrifuged for ten minutes at 20,000 x g (Sorvall RC-2), 4°C. The supernatant was discarded, and the pellet was resuspended and centrifuged as before. The pellet was resuspended in 20 ml Tris-HCI buffer containing two International Units/ml of adenosine deaminase (Sigma type III from calf intestinal mucosa), incubated at 37°C for 30 minutes, then subsequently at 0°C for ten minutes. The homogenate was again centrifuged, and the final pellet was resuspended in ice-cold 0.05 M Tris-HCI buffer pH 7.7 to a concentration of 20 mg/ml original wet tissue weight and used immediately.
# Tissue homogenate (10 mg/ml) was incubated in 0.05 M Tris-HCI buffer pH 7.7 containing 1.0 nM [^3H]-N^6-cyclohexyladenosine (^3H]-CHA) with or without test agents in triplicate for one hour at 25°C. Incubation volume was 2 ml. Unbound [^3H]-CHA was separated by rapid filtration under reduced pressure through Whatman glass fiber (GF/B) filters. The filters were rinsed three times with 5 ml of ice cold 0.05 M Tris-HCI buffer pH 7.7. The radio-labeled ligand retained on the filter was measured by liquid scintillation spectrophotometry after shaking the filters for one hour or longer on a mechanical shaker in 10 ml of Beckman Ready Solv HP scintillation cocktail.
# Nonspecific binding was defined as the binding which occurred in the presence of 1 mM thophylline. […] The Scatchard plot was calculated by linear regression of the line obtained by plotting the amount of radioligand bound (pmoles/gram of tissue) versus [formula] Since the amount of radioligand bound was a small fraction of the total amount added, free radioligand was defined as the concentration (nM) of radioligand added to the incubation mixture. The Hill coefficient was calculated by linear regression of the line obtained by plotting the log of the bound radioligand vs the log of the [formula] The maximal number of binding sites (Bmax) was calculated from the Scatchard plot.
# [2] = molecular target: T2, adenosine A2 receptor (Rattus norvegicus, UniProt P30543); assay: Adenosine Receptor Binding - A2 Receptor Affinity (RBA2); details: [3H]NECA, rat striatal membranes; read-out: RBA-2
# T2 construct: 5 mg original tissue weight of rat weight of rat striatal membranes; tissue Pel-Freez (Rogers, Arkansas); host or cells: rat striatum, membrane preparation
# Description: Adenosine Receptor Binding - A2 Receptor Affinity (RBA2)
# Brains from 200-500 g mixed sex Sprague-Dawley rats were purchased from Pel-Freez (Rogers, Arkansas). […] Brains were thawed and then kept on ice while the striata were dissected out. […] When needed, tissue was thawed at room temperature, disrupted in a Polytron, and kept on ice until used.
# All incubations were for 60 minutes at 25°C in 12x75 mm glass tubes containing 1 ml Tris with 5 mg original tissue weight of rat weight of rat striatal membranes, 4 nM [^3H]-N-ethyl adenosine-5'-carboxamide ([^3H]NECA), 50 nM N^6-cyclopentyladenosine (to eliminate A1 receptor binding), 10 mM MgCl2, 0.1 units/ml of adenosine deaminase and 1% dimethylsulfoxide. N^6-Cyclopentyladenosine was dissolved at 10 mM in 0.02 N HCI and diluted in Tris. […] Test compounds were dissolved at 10 mM in dimethylsulfoxide on the same day as the experiment, and diluted in dimethylsulfoxide to 100x the final incubation concentration. […] [^3H]NECA was diluted to 40 nM in Tris. The membrane suspension (5 mg/0.79 ml) contained sufficient MgC12 and adenosine deaminase to give 10 mM and 0.1 units/ml, respectively, final concentration in the incubation. For test compounds with lC50 values less than 1 µM, the order of additions was test compound (10 µl), N^6-cyclopentyladenosine (100 µl), [^3H]NECA (100 µl), and membranes (0.79 ml). […] After all additions, the rack of tubes was vortexed, and the tubes were then incubated for 60 min at 25°C in a shaking water bath. The rack of tubes was vortexed an additional time halfway through the incubation.
# incubations were terminated by filtration through 2.4 cm GF/B filters under reduced pressure. Each tube was filtered as follows: the contents of the tube were poured onto the filter, 4 ml of ice-cold Tris were added to the tube and the contents poured onto the filter, and the filter was washed twice with 4 ml of ice-cold Tris. The filtration was complete in about twelve seconds.
# Nonspecific binding was defined as binding in the presence of 100 µM N^6-cyclopentyladenosine, and specific binding was defined as total binding minus nonspecific binding. The IC50 was calculated by weighed nonlinear least squares curve-fitting to the mass-action equation. [formula] • where Y is cpm bound • T is cpm total binding without drug • S is cpm specific binding without drug • D is the concentration of drug • and K is the IC50 of the drug Weighting factors were calculated under the assumption that the standard deviation was proportional to the predicted value of Y. Nonspecific binding was treated as a very large (infinite) concentration of drug in the computer analysis.
# [3] = tested on: Swiss-Webster male mice; assay: Mouse Activity and Screen Test Procedure (MAST): locomotor activity in actophotometer; type: in vivo; details: one hour prior to testing
# Description: Nine unfasted Swiss-Webster male mice weighing 20-30 g equally divided into three groups for each drug dose to be tested. That is, data for each dose level was generated by three separated groups of three mice each. A minimum of three dose levels (10, 30, and 100 mg/kg) are tested for each drug. Treatments are administered intraperitoneally one hour prior to testing. All dosages are calculated as parent compound and given in volumes of 10 ml/kg. […] Control animals are injected with Methocel. […] The actophotometer consists of a cylindrical chamber whose center is occupied by another cylinder which contains the illumination for six photocells located on the perimeter of the chamber. Six light-beam interruptions equal one count. […] Data: The data obtained from the screen test are expressed as percent of mice falling off the screen. Data derived from locomotor activity of drug treated mice are compared to the activity of vehicle treated animals and are expressed as percent inhibition of spontaneous locomotion. All percentages reported for inhibition of locomotion (LI) are based upon data accumulated for one hour. […] An overall dose rating is obtained by the following criteria: LAD refers to the lowest dose at which an A rating is achieved. […] The compounds are identified in the Examples.
# [4] = tested on: Swiss-Webster male mice; assay: Mouse Activity and Screen Test Procedure (MAST): screen test (ST); type: in vivo; details: one hour postinjection
# Text: The compounds of the invention are new chemical substances which are useful as pharmaceutical agents for the treatment of psychoses. The antipsychotic activity of representative compounds of the invention was established by the Mouse Activity and Screen Test Procedrue (MAST) described below.
# Nine unfasted Swiss-Webster male mice weighing 20-30 g equally divided into three groups for each drug dose to be tested. That is, data for each dose level was generated by three separated groups of three mice each.
# A minimum of three dose levels (10, 30, and 100 mg/kg) are tested for each drug. Treatments are administered intraperitoneally one hour prior to testing. All dosages are calculated as parent compound and given in volumes of 10 ml/kg. Compounds are dissolved or suspended in 0.2% Methocel. Control animals are injected with Methocel.
# Testing: A two part testing procedure is started one hour postinjection. First, the screen test (ST) is performed (see Pharmac. Biochem. Behav. 6, 351-353, 1977). Briefly this test consists of placing mice on individual wire screens which are then rotated 180 degrees at the start of a 60 second observation period. The number of mice falling off the inverted screen is recorded.
# Data: The data obtained from the screen test are expressed as percent of mice falling off the screen. Data derived from locomotor activity of drug treated mice are compared to the activity of vehicle treated animals and are expressed as percent inhibition of spontaneous locomotion. All percentages reported for inhibition of locomotion (LI) are based upon data accumulated for one hour. Both phases of testing are graded: A=60-100%; G=31-59%; and N=0-30%. An overall dose rating is obtained by the following criteria:
# LAD refers to the lowest dose at which an A rating is achieved. […] Utilizing this procedure, an overall dose rating of A was obtained for the noted compound at the indicated dose. The compounds are identified in the Examples.
# T2 sequence (P30543 whole entry): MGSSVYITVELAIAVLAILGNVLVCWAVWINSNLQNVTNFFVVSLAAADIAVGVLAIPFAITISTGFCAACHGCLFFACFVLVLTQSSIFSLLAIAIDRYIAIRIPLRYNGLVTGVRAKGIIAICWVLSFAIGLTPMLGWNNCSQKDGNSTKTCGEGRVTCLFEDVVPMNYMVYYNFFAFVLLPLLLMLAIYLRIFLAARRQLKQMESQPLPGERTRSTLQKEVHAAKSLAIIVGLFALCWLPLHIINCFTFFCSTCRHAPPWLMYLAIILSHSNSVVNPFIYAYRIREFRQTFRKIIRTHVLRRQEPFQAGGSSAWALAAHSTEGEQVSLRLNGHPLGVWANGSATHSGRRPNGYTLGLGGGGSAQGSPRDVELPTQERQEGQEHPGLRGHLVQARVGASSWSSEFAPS
IC50 [1],IC50 [2],Screen test failure ([4]; 1 mg/kg intraperitoneally),Screen test failure ([4]; 3 mg/kg intraperitoneally),Screen test failure ([4]; 10 mg/kg intraperitoneally),Screen test failure ([4]; 30 mg/kg intraperitoneally),Structure (SMILES),Inhibition of mouse locomotor activity ([3]; 1 mg/kg intraperitoneally),Inhibition of mouse locomotor activity ([3]; 3 mg/kg intraperitoneally),Inhibition of mouse locomotor activity ([3]; 10 mg/kg intraperitoneally),Inhibition of mouse locomotor activity ([3]; 30 mg/kg intraperitoneally)
1.06 µM,7.92 µM,–,–,–,–,"O=C(OC[C@H]1O[C@@H](n2cnc3c(NC4CCCc5ccccc54)ncnc32)[C@H](O)[C@@H]1O)c1ccccc1 (stereo partly drawn) [Example 13, N^6-(1-tetralinyl)-5'-benzoyladenosine]",–,–,–,–
–,–,11%,0%,0%,11%,"CCOC(=O)OC[C@H]1O[C@@H](n2cnc3c(NC4CCCc5ccccc54)ncnc32)[C@H](OC(=O)OCC)[C@@H]1OC(=O)OCC (stereo partly drawn) [Example 19, N^6-1-tetralinyl-2',3',5'-triethylcarbonate-adenosine]",42%,57%,91%,95%

# The next lines start with the molecule.
Structure (SMILES),IC50 [1],IC50 [2],Screen test failure ([4]; 1 mg/kg intraperitoneally),Screen test failure ([4]; 3 mg/kg intraperitoneally),Screen test failure ([4]; 10 mg/kg intraperitoneally),Screen test failure ([4]; 30 mg/kg intraperitoneally),Inhibition of mouse locomotor activity ([3]; 1 mg/kg intraperitoneally),Inhibition of mouse locomotor activity ([3]; 3 mg/kg intraperitoneally),Inhibition of mouse locomotor activity ([3]; 10 mg/kg intraperitoneally),Inhibition of mouse locomotor activity ([3]; 30 mg/kg intraperitoneally)
"COc1cccc2c1CCC[C@H]2Nc1ncnc2c1ncn2[C@@H]1O[C@H](CO)[C@@H](O)[C@H]1O [Example 11, (R)-N^6-[5-methoxy-1-aminotetralin]-adenosine]",0.444 µM,2.61 µM,–,–,–,–,–,–,–,–
"CC1(C)O[C@@H]2[C@H](O1)[C@@H](CO)O[C@H]2n1cnc2c(NC3CCCc4ccccc43)ncnc21 (stereo partly drawn) [Example 12, N^6-(1-tetralinyl)-2',3'-O-isopropylidene-adenosine]",22.4 µM,–,–,0%,0%,0%,–,3%,−1%,−16%
"O[C@@H]1[C@H](O)[C@@H](COCc2ccccc2)O[C@H]1n1cnc2c(NC3CCCc4ccccc43)ncnc21 (stereo partly drawn) [Example 20, N^6-tetralinyl-5'-benzylether-adenosine]",5.84 µM,46.7 µM,–,–,–,–,–,–,–,–
